According to PMC11279465, “Dual Inhibitors of P-gp and Carbonic Anhydrase XII (hCA XII) against Tumor Multidrug Resistance with Piperazine Scaffold” (Molecules, 2024):

Tests used:
hCA I = biological target: T1, hCA I (Homo sapiens, UniProt P00915); experiment: CA inhibition, stopped-flow CO2 hydrase assay; type: biochemical; settings: stopped-flow technique; incubation time 6 h; mean of 3 assays
T1 construct: made in house
How it was run: (§1)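 Stopped-flow CO2 hydration used saturated CO2 solutions at 25 °C as substrate. Enzyme and inhibitor (10 μM stocks in DMSO-water, diluted down to 0.01 nM) were preincubated for 6 h at room temperature.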

hCA II = biological target: T2, hCA II (Homo sapiens, UniProt P00918); experiment: CA inhibition, stopped-flow CO2 hydrase assay; type: biochemical; settings: stopped-flow technique; incubation time 6 h; mean of 3 assays
T2 construct: made in house
How it was run: as §1

hCA IX = biological target: T3, hCA IX (Homo sapiens, UniProt Q16790); experiment: CA inhibition, stopped-flow CO2 hydrase assay; type: biochemical; settings: stopped-flow technique; incubation time 6 h; mean of 3 assays
T3 construct: made in house
How it was run: as §1

hCA XII = biological target: T4, hCA XII (Homo sapiens, UniProt O43570); experiment: CA inhibition, stopped-flow CO2 hydrase assay; type: biochemical; settings: stopped-flow technique; incubation time 6 h; mean of 3 assays
T4 construct: made in house
How it was run: as §1

K562/DOX cells = experiment: Doxorubicin cytotoxicity enhancement assay (MTT); type: cell-based, human; settings: 72 h
How it was run: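 K562/DOX cells exposed 72 h to varying doxorubicin concentrations plus 1 or 3 µM test compound. Viability by MTT absorbance, expressed as percentage of untreated control cells.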

MRP1 = biological target: T5, MRP1 (Homo sapiens, UniProt P33527); experiment: Calcein-AM transport inhibition in MDCK-MRP1 cells; type: cell-based; settings: mean ± SEM
T5 construct: expressed in transfected cells; host or cells: MDCK (Madin-Darby Canine Kidney)
Excerpt: (§2) The MDR interaction potency of these compounds was studied by detecting the inhibition of the P-gp-, MRP1- or BCRP-mediated efflux of a substrate in cells overexpressing the studied pumps. In detail, we measured the following: (i) the transport inhibition of the profluorescent probe calcein-AM (P-gp and MRP1 substrate) in MDCK-MDR1 and MDCK-MRP1 cells (P-gp- and MRP1-overexpressing cells, respectively); (ii) the transport inhibition of the fluorescent probe Hoechst 33342 (BCRP substrate) in MDCK-BCRP cells (BCRP-overexpressing cells).
Experiments were performed as previously described. MDCK-MDR1 and MDCK-MRP1 cells (30,000 cells per well) were seeded in a 96-well black CulturePlate in 100 µL of medium and allowed to grow overnight in a humidified atmosphere of 5% CO2 at 37 °C. […] All wells were washed 3 times with 100 µL ice-cold PBS and read with Victor3 (PerkinElmer) after adding 100 µL of cold PBS. […] In these experimental conditions, cell Calcein-AM accumulation in the absence and in the presence of each tested compound was evaluated and compared to the basal level of fluorescence derived from untreated cells. The increase in fluorescence from the baseline level was measured in the treated wells. EC50 values were determined by fitting the rate of fluorescence increase versus log[dose].

A549/DOX cells [1] = experiment: Intrinsic cytotoxicity (MTT); type: cell-based, human; settings: compound alone, 1 µM, 48 h; A549/DOX vs A549
Procedure: (§3) All compounds were preliminarily studied to evaluate their intrinsic cytotoxicity at different concentrations (from 10 nM to 50 µM) in the parental HT29 and A549 and the resistant HT29/DOX and A549/DOX cells using the MTT assay.
(§4) The intrinsic toxicity of the studied compounds was determined by an MTT assay. K562 and K562/DOX were exposed for 72 h with compounds at 1 and 3 µM concentrations while HT29, A549, HT29/DOX and A549/DOX cells were incubated for 48 h with compounds used at different concentrations (from 10 nM to 50 µM). The percentage of growth compared to the untreated control was transformed into histograms with the GraphPad Prism 5 program. […]

HT29/DOX cells [2] = experiment: Intrinsic cytotoxicity (MTT); type: cell-based, human; settings: compound alone, 1 µM, 48 h; HT29/DOX vs HT29
Procedure: as §3, §4

A549/DOX cells [3] = experiment: ROS measurement (DCFDA-AM); type: cell-based, human; settings: 1 µM
Procedure: (§5) Selected compounds have been tested for their cytotoxic activity at 24 h on HT29/DOX and A549/DOX cells and on the parental HT29 and A549 cells by MTT assay. To evaluate the mechanisms involved in CS, reactive oxygen species (ROS) were measured using the fluorescent probe 5-(and-6)-chloromethyl-2′,7′-dichlorodihydro-fluorescein diacetate-acetoxymethyl ester (DCFDA-AM), as previously reported. The results were expressed as nmol/mg cellular proteins. The amount of TBARS, as an index of lipoperoxidation, was measured with the Lipid Peroxidation (4-HNE) Assay Kit (Abcam, Cambridge, UK) that evaluates the 4-hydroxy-nonenale, one of the TBARS Results were expressed as nmoles/mg mitochondrial protein.

HT29/DOX cells [4] = experiment: ROS measurement (DCFDA-AM); type: cell-based, human; settings: 1 µM
Procedure: as §5

A549/DOX cells [5] = experiment: TBARS (lipid peroxidation, 4-HNE kit); type: cell-based, human; settings: 1 µM
Procedure: as §5

HT29/DOX cells [6] = experiment: TBARS (lipid peroxidation, 4-HNE kit); type: cell-based, human; settings: 1 µM
Procedure: as §5

A549/DOX cells [7] = experiment: Membrane fluidity; type: cell-based, human; settings: 1 µM
Procedure: (§6) Membrane fluidity was measured fluorometrically using the Membrane Fluidity Kit, Abcam, according to the manufacturer’s instructions.

HT29/DOX cells [8] = experiment: Membrane fluidity; type: cell-based, human; settings: 1 µM
Procedure: as §6

P-gp [9] = biological target: T6, P-gp (Homo sapiens, UniProt P08183); experiment: P-gp ATPase activity (HT29/DOX cells); type: biochemical; parameters: endogenous in cells; host or cells: HT29/DOX (A27) and A549/DOX (A28); settings: 1 µM, compared with HT29
Procedure: (§7) Plasma-membrane vesicles enriched with P-gp were prepared by sequential centrifugation as detailed previously. The ATPase activity of immunopurified P-gp was evaluated spectrophotometrically by measuring the absorbance of the phosphate hydrolyzed from ATP at 620 nm, using a Synergy HT Multi-Detection Microplate Reader (Bio-Tek Instruments). The absorbance was converted into μmol hydrolyzed phosphate/min/mg proteins, according to the titration curve previously prepared.

P-gp [10] = biological target: T6, P-gp; experiment: P-gp ATPase activity (A549/DOX cells); type: biochemical; parameters: endogenous in cells; host or cells: HT29/DOX (A27) and A549/DOX (A28); settings: 1 µM, compared with A549
Procedure: as §7

P-gp [11] = biological target: T6, P-gp; experiment: Calcein-AM transport inhibition in MDCK-MDR1 cells; type: cell-based; parameters: expressed in transfected cells; host or cells: MDCK (Madin-Darby Canine Kidney); settings: mean ± SEM
Excerpt: as §2
Experiments were performed as previously described. MDCK-MDR1 and MDCK-MRP1 cells (30,000 cells per well) were seeded in a 96-well black CulturePlate in 100 µL of medium and allowed to grow overnight in a humidified atmosphere of 5% CO2 at 37 °C. Tested compounds (100 µL) in a final concentration ranging between 0.01 nM and 100 µM, solubilized in culture medium, were added to the monolayers. After 30 min in a humidified atmosphere of 5% CO2 at 37 °C, 100 µL of Calcein-AM in phosphate-buffered saline (PBS) was added to obtain a final concentration of 2.5 µM and the plate was incubated for 30 min. All wells were washed 3 times with 100 µL ice-cold PBS and read with Victor3 (PerkinElmer) after adding 100 µL of cold PBS. Excitation and emission wavelengths of 485 nm and 535 nm, respectively, were used. In these experimental conditions, cell Calcein-AM accumulation in the absence and in the presence of each tested compound was evaluated and compared to the basal level of fluorescence derived from untreated cells. The increase in fluorescence from the baseline level was measured in the treated wells. EC50 values were determined by fitting the rate of fluorescence increase versus log[dose].

T6 sequence (P08183 whole entry): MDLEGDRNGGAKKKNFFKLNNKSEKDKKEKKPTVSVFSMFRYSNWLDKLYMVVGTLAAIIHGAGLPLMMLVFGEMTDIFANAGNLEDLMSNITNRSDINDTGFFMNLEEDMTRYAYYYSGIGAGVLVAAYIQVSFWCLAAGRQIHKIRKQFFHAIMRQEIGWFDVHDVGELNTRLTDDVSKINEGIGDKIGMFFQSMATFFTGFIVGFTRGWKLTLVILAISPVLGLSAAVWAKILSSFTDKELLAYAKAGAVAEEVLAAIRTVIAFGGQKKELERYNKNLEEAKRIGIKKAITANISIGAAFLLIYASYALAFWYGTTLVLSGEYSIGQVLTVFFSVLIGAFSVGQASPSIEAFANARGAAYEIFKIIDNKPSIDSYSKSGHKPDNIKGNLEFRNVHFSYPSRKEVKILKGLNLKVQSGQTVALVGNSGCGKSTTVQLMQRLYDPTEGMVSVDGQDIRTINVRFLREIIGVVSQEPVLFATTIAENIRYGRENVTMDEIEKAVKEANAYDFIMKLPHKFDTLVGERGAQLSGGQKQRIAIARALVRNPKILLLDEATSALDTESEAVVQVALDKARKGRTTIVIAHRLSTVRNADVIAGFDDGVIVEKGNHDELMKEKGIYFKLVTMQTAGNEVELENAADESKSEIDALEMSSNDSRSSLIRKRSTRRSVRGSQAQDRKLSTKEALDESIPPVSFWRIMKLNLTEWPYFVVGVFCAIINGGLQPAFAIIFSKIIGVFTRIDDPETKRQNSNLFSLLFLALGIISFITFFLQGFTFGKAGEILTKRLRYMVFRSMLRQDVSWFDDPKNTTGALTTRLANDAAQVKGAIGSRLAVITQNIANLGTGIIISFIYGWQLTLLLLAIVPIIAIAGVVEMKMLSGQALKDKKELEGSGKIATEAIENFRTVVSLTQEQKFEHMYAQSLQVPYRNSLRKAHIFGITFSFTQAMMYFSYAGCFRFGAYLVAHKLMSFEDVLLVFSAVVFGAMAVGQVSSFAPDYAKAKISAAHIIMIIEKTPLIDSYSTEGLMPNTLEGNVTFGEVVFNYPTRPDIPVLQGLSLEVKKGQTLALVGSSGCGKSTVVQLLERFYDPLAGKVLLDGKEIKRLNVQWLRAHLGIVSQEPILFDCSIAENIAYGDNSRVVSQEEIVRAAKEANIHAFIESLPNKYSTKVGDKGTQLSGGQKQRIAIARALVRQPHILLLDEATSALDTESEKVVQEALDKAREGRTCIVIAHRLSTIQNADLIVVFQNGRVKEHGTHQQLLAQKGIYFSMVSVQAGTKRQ
T4 sequence (O43570 25-354): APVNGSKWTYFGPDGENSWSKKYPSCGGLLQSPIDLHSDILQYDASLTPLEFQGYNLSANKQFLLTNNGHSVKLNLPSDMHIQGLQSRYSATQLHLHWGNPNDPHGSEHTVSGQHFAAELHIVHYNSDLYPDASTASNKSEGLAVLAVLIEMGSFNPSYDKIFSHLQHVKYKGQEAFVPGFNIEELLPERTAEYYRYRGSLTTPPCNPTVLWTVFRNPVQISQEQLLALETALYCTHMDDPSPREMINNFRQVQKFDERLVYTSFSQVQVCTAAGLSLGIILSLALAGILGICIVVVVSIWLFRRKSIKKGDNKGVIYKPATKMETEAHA
T1 sequence (P00915 whole entry): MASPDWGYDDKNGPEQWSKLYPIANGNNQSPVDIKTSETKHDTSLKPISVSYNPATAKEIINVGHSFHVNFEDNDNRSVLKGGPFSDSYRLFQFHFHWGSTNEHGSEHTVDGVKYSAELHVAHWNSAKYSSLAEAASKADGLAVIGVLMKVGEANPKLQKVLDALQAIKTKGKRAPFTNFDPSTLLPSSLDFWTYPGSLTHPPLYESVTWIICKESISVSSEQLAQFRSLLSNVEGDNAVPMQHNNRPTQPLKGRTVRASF
T5 sequence (P33527 whole entry): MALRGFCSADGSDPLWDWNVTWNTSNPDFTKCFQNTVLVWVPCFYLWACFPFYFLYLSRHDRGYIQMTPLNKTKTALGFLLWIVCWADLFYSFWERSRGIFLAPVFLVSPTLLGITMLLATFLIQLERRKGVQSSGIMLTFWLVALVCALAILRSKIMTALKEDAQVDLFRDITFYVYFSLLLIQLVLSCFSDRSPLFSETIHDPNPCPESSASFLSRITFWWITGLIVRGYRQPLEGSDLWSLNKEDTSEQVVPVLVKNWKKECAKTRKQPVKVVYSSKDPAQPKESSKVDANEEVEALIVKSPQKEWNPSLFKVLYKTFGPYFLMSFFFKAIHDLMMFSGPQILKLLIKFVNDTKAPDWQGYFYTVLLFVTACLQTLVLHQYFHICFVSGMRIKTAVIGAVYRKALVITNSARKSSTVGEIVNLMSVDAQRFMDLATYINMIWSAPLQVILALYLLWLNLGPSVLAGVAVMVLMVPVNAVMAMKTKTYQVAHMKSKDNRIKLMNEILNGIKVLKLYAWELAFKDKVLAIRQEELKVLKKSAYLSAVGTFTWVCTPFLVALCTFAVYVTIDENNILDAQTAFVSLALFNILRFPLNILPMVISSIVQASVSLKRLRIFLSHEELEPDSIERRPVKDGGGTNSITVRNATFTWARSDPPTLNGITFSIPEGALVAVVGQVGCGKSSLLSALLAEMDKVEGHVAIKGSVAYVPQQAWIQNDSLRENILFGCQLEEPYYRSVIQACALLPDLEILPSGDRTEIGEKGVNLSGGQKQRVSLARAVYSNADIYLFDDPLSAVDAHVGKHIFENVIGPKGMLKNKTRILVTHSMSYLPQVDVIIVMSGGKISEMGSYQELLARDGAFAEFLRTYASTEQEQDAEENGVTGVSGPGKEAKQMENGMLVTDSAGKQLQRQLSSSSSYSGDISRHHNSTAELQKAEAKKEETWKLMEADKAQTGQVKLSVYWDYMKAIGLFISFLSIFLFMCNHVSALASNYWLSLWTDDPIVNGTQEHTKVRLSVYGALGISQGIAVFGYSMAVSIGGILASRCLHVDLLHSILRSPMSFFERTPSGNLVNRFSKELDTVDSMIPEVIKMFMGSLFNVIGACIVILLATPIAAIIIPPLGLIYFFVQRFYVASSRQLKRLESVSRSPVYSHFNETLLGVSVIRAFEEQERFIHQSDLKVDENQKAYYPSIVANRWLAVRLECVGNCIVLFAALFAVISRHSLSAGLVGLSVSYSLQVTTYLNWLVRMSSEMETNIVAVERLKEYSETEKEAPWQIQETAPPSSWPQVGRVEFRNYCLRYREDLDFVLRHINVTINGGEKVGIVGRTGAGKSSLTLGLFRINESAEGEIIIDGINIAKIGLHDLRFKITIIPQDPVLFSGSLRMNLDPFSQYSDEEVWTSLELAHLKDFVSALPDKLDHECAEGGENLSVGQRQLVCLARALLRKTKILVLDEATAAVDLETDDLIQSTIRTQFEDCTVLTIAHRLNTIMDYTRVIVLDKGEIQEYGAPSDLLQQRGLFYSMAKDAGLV

COc1cc(CN2CCN(CCOc3ccc4ccc(=O)oc4c3)CC2)cc(OC)c1OC [Compound 13, 7-(2-(4-(3,4,5-Trimethoxybenzyl)piperazin-1-yl)ethoxy)-2H-chromen-2-one]
Ki (hCA I): > 10 µM
Ki (hCA II): > 10 µM
Ki (hCA IX): 0.0237 µM
Ki (hCA XII): 0.0062 µM
RF (Reversal Fold: IC50 of doxorubicin alone / in presence of modulator) (K562/DOX cells; compound at 1 µM): 1.0
RF (Reversal Fold: IC50 of doxorubicin alone / in presence of modulator) (K562/DOX cells; compound at 3 µM): 1.9
EC50 (MRP1): 52 ± 10 µM
more cytotoxic in resistant cells than in parental sensitive cells (A549/DOX cells [1]): 15%-20%
more cytotoxic in resistant cells than in parental sensitive cells (HT29/DOX cells [2]): 15%-20%
increase of ROS levels compared to the control (A549/DOX cells [3]): 7–8 times
increase of ROS levels compared to the control (HT29/DOX cells [4]): 3–4 times
increase of TBARS levels compared to the control (A549/DOX cells [5]): 4 times
increase of TBARS levels compared to the control (HT29/DOX cells [6]): 2.6 times
membrane fluidity (A549/DOX cells [7]): increased membrane fluidity
membrane fluidity (HT29/DOX cells [8]): increased membrane fluidity
P-gp catalytic activity (P-gp [9]): lowered the catalytic efficacy of P-gp in resistant cells to levels comparable to drug-sensitive HT29 and A549 cells
P-gp catalytic activity (P-gp [10]): lowered the catalytic efficacy of P-gp in resistant cells to levels comparable to drug-sensitive HT29 and A549 cells
EC50 (P-gp [11]): 14.5 ± 0.25 µM
